Results on 16 compounds are retold here after patent publication US20150087627A1, “COMBINATION OF KINASE INHIBITORS AND USES THEREOF” (Intellikine LLC, priority 2011, published 2015).

In general, IC50 refers to the concentration needed to halve the response being measured.

Assay type in all cases: biochemical
The target of one assay is T1, PI3K β (p110β/p85α) (Homo sapiens, UniProt P42338).
T1 construct: purchased Upstate / Millipore Corporation
In words: PI 3-Kinase (human) HTRF assay, PI3K β. Conditions: read-out: PI3K β IC50. A general note: TR-FRET usually uses a lanthanide donor and a delayed reading to cut background.

The target of another assay is T2, PI3K α (p110α/p85α) (Homo sapiens, UniProt P42336).
T2 construct: purchased Upstate / Millipore Corporation
In words: PI 3-Kinase (human) HTRF assay, PI3K α. Conditions: read-out: PI3K α IC50.

In another assay the target is T3, PI3K γ (p110γ) (Homo sapiens, UniProt P48736).
T3 construct: purchased Upstate / Millipore Corporation
In words: PI 3-Kinase (human) HTRF assay, PI3K γ. The settings on record: read-out: PI3K γ IC50.

The target in the next assay is T4, PI3K δ (Homo sapiens, UniProt O00329).
T4 construct: purchased Upstate / Millipore Corporation
The experiment in a line: PI 3-Kinase (human) HTRF assay, PI3K δ. The settings on record: read-out: PI3K δ IC50.

Read-outs that look alike come from different tables or passages of the source.

T1 sequence (P42338 whole entry): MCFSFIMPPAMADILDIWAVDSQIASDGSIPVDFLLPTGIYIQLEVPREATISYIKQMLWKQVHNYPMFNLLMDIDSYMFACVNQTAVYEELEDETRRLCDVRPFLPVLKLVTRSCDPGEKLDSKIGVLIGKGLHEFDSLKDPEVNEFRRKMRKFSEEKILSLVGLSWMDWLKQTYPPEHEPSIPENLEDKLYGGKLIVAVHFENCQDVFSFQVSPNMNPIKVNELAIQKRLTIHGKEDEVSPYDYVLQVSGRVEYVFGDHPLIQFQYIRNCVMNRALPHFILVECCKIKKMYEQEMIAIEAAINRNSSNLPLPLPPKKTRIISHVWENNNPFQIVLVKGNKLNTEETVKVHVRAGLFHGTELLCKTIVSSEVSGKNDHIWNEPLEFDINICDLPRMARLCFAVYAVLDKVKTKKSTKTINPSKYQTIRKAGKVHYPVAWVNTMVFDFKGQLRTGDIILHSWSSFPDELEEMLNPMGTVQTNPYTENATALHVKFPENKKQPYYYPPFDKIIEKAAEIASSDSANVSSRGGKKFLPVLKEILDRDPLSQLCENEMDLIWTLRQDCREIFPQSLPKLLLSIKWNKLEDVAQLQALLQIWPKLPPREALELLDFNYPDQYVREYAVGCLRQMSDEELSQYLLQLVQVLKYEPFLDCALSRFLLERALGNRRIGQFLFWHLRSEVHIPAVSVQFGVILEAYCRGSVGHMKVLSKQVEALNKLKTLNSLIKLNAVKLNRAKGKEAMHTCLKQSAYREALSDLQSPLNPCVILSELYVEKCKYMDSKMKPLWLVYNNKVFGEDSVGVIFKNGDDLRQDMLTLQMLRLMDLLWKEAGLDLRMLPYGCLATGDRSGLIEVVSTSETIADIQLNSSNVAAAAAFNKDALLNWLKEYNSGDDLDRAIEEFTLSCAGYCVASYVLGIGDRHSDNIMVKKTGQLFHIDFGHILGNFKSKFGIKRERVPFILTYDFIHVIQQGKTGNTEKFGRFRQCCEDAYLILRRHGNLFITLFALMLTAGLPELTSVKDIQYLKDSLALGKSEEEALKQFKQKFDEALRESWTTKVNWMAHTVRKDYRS
T1 sequence (P27986 whole entry partner): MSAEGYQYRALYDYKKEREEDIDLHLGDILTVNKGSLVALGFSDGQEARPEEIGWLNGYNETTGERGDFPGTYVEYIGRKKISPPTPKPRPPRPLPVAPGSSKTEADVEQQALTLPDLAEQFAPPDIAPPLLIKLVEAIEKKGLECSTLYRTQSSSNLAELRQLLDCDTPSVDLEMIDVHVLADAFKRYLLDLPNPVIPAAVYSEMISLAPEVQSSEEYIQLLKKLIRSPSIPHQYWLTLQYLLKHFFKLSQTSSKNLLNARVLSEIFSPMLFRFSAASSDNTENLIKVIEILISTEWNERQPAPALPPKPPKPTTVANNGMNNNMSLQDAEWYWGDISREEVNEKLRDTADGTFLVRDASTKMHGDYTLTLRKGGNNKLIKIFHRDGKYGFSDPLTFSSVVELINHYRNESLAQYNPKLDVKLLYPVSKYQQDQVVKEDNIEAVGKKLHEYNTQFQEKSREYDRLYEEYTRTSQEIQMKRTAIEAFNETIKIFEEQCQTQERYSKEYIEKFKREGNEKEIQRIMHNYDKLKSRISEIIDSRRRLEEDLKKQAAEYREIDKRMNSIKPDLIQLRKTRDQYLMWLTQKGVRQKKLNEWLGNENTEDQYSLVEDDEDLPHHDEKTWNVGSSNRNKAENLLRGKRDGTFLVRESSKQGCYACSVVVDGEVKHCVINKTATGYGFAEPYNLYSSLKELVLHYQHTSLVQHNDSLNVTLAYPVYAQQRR
T4 sequence (O00329 whole entry): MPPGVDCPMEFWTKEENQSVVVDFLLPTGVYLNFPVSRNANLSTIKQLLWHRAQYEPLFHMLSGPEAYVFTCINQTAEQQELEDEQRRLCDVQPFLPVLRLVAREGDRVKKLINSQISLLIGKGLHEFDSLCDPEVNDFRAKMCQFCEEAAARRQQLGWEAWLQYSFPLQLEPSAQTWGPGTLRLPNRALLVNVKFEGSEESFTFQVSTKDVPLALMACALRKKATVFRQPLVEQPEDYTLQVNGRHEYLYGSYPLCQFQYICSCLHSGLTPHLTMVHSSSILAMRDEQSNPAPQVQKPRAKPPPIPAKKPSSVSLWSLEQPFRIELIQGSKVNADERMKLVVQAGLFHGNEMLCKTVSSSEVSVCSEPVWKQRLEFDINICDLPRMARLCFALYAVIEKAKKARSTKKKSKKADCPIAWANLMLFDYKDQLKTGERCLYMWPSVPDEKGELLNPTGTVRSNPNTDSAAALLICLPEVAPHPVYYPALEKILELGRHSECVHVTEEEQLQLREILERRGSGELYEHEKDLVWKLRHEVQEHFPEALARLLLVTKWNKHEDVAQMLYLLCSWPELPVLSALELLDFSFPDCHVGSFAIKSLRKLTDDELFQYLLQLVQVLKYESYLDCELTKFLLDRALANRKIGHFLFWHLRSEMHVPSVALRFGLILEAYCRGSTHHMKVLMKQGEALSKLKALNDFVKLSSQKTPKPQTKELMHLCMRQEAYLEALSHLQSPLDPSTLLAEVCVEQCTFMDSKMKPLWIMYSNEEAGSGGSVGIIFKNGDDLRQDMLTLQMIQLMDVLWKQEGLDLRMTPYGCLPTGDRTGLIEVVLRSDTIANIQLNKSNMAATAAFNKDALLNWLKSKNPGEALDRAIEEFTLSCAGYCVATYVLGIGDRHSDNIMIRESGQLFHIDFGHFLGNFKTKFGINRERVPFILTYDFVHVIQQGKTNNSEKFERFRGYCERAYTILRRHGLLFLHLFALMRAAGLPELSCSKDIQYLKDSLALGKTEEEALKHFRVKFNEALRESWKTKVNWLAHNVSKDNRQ
T4 sequence (P27986 whole entry partner): as the sequence (P27986 whole entry partner) above
T3 sequence (P48736 whole entry): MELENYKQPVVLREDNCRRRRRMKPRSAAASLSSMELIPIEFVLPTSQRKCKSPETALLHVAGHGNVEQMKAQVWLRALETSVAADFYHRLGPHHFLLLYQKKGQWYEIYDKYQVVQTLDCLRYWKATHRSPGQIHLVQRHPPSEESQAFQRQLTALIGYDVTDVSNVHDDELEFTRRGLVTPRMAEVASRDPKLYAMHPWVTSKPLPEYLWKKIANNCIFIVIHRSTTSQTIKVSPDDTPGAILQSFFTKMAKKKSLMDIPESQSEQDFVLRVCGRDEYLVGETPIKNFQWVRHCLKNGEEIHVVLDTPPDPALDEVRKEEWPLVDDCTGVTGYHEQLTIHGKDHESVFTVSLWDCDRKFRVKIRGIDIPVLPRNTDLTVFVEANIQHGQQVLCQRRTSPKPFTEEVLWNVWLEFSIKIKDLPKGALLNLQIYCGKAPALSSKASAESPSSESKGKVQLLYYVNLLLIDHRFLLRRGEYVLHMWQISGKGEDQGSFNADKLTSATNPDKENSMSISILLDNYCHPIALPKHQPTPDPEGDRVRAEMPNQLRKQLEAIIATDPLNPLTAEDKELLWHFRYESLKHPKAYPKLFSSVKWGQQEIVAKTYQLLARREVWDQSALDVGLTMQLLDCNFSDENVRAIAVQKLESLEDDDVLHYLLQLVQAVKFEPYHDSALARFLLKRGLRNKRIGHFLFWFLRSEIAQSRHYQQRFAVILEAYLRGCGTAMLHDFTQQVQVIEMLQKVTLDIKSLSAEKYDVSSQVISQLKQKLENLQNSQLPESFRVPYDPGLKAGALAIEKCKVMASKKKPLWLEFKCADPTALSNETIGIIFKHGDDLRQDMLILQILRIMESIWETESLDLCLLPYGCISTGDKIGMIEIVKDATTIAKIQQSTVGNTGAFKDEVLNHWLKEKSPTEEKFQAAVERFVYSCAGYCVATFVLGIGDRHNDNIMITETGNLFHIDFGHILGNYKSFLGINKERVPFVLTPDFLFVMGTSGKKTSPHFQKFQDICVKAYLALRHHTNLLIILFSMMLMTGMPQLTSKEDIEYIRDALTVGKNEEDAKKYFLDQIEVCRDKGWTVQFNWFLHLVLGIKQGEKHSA
T2 sequence (P42336 whole entry): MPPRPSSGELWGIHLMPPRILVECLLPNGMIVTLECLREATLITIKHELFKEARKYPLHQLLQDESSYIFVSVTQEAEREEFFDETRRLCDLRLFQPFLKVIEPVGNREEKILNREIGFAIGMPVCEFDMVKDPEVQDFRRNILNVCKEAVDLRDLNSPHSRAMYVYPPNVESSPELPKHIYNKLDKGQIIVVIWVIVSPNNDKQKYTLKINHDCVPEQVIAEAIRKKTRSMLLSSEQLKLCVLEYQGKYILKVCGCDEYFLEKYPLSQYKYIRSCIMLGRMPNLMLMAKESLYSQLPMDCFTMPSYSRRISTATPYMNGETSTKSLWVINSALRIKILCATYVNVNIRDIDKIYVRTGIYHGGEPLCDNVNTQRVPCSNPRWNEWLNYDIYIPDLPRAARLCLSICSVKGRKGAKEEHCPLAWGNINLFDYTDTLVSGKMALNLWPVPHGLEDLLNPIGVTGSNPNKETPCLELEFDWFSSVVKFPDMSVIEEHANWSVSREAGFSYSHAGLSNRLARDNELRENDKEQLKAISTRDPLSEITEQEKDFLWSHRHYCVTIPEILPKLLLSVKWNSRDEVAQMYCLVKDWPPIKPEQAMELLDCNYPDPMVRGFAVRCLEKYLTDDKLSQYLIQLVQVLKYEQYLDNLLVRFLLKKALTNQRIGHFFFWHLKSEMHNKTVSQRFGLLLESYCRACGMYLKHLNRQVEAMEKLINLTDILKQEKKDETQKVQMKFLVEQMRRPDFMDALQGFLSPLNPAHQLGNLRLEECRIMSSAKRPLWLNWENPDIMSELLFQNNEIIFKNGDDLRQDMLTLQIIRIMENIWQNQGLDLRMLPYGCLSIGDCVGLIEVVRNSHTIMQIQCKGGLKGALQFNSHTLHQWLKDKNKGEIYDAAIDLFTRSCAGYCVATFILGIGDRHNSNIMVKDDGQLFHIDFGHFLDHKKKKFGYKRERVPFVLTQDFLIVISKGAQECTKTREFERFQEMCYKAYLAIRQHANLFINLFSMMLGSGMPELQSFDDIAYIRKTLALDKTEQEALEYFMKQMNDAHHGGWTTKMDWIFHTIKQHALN
T2 sequence (P27986 whole entry partner): as the sequence (P27986 whole entry partner) above
Procedure for PI3K α (p110α/p85α): (§1) Briefly, the assay is a time resolved FRET assay that indirectly measures PIP3 product formed by the activity of a PI3-K. The kinase reaction is performed in a microtiter plate (e.g., a 384 well microtiter plate). The total reaction volume is approximately 20 ul per well. In the first step, each well receives 2 ul of test compound in 20% dimethylsulphoxide resulting in a 2% DMSO final concentration. […] The plate is sealed and incubated for 15 minutes at room temperature. […] The plate is sealed and incubated for 1 hour at room temperature. The reaction is stopped by adding 5 ul of Stop Solution per well and then 5 ul of Detection Mix is added per well. The plate is sealed, incubated for 1 hour at room temperature, and then read on an appropriate plate reader. Data is analyzed and IC50s are generated using GraphPad Prism 5.
Procedure for PI3K γ (p110γ): as §1

As to `CC(=O)N1CCC(Nc2cnc3ccc(-c4ccc5oc(N)nc5c4)cc3n2)CC1` [Compound 82], the IC50 at PI3K β (p110β/p85α) is under 10 µM; at PI3K α (p110α/p85α), under 0.1 µM; at PI3K γ (p110γ), under 0.1 µM; at PI3K δ, under 0.1 µM.
As for `Nc1nc2ccc(-c3ccc4ncc(N5CCOCC5)nc4c3)cc2o1` [Compound 117], the concentration for half-maximal inhibition (IC50) at PI3K β (p110β/p85α) is under 1 µM; at PI3K α (p110α/p85α), under 0.1 µM; at PI3K γ (p110γ), under 1 µM; at PI3K δ, over 10 µM.
As for `Nc1nc2ccc(-c3ccc4ncc(N5CCOCC5)nc4c3)cc2s1` [Compound 114], the IC50 was over 10 µM on PI3K β (p110β/p85α), under 0.1 µM at PI3K α (p110α/p85α), under 1 µM at PI3K γ (p110γ) and over 10 µM on PI3K δ.
Turning to `Nc1nc2ccc(-c3ccc4ncc(C(=O)N5CCOCC5)n4c3)cc2[nH]1` [Compound 544], the IC50 is over 10 µM at PI3K β (p110β/p85α), under 1 µM on PI3K α (p110α/p85α), over 10 µM at PI3K γ (p110γ) and over 10 µM on PI3K δ.
Take `Nc1nc2cc(-c3cc(F)c4oc(N)nc4c3)ccc2o1` [Compound 432]: the IC50 at PI3K β (p110β/p85α) was under 1 µM; at PI3K α (p110α/p85α) it was under 10 µM; at PI3K γ (p110γ) it was under 0.1 µM; on PI3K δ, over 10 µM.
Take `COc1nc(-c2ccc3oc(N)nc3c2)cnc1N` [Compound 238]: the IC50 on PI3K β (p110β/p85α) was under 1 µM; on PI3K α (p110α/p85α) it was under 1 µM; on PI3K γ (p110γ) it was under 1 µM; on PI3K δ, under 10 µM.
As for `Nc1nc2cc(-c3ccc4ncc(N5CCC(O)CC5)nc4c3)ccc2o1` [Compound 99], the IC50 is under 10 µM at PI3K β (p110β/p85α), under 0.1 µM on PI3K α (p110α/p85α), under 1 µM on PI3K γ (p110γ) and under 1 µM at PI3K δ.
In the case of `CN1CCN(c2cnc3ccc(-c4ccc5nc(N)sc5c4)cc3n2)CC1` [Compound 115], the IC50 is under 0.1 µM at PI3K β (p110β/p85α), under 0.1 µM at PI3K α (p110α/p85α), under 10 µM on PI3K γ (p110γ) and over 10 µM on PI3K δ.
On to `Nc1nc2cc(-c3ccc4ncc(C(=O)N5CC[C@H](N6CCOCC6)C5)n4c3)ccc2o1` [Compound 465], for which the IC50 on PI3K β (p110β/p85α) was over 10 µM; on PI3K α (p110α/p85α), under 0.1 µM; on PI3K γ (p110γ), under 1 µM; on PI3K δ, over 10 µM.
Regarding `C[C@@H](N)C(=O)N1CCN(c2cnc3ccc(-c4ccc5oc(N)nc5c4)nc3c2)CC1` [Compound 590], the IC50 was under 0.1 µM on PI3K β (p110β/p85α) (Table 4 (PI3K α inhibitors)), under 0.1 µM at PI3K α (p110α/p85α) (Table 4 (PI3K α inhibitors)), under 1 µM on PI3K γ (p110γ) (Table 4 (PI3K α inhibitors)) and under 1 µM at PI3K δ (Table 4 (PI3K α inhibitors)).
With `Nc1nc2cc(-c3ccc4ncc(-c5ccnc(N6CCOCC6)c5)nc4c3)ccc2o1` [Compound 150], the IC50 at PI3K β (p110β/p85α) was over 10 µM; at PI3K α (p110α/p85α), under 1 µM; at PI3K γ (p110γ), over 10 µM; at PI3K δ, over 10 µM.
Take `Nc1nc2cc(-c3ccc4ncc(C(=O)N5CCOCC5)n4c3)ccc2s1` [Compound 126]: the IC50 on PI3K β (p110β/p85α) is under 10 µM; at PI3K α (p110α/p85α) it was under 1 µM; on PI3K γ (p110γ) it was under 1 µM; at PI3K δ it was over 10 µM.
For the compound `Nc1nc2cc(-c3ccc4ncc(-c5cn[nH]c5)n4n3)ccc2o1` [Compound 59], the IC50 at PI3K β (p110β/p85α) is under 0.1 µM; at PI3K α (p110α/p85α), under 0.1 µM; on PI3K γ (p110γ), under 0.1 µM; at PI3K δ, under 1 µM.
As to `CC(=O)N1CCN(C(=O)c2cnc3ccc(-c4ccc5oc(N)nc5c4)cn23)CC1` [Compound 113], the 50% inhibitory concentration (IC50) at PI3K β (p110β/p85α) is over 10 µM; at PI3K α (p110α/p85α), under 0.1 µM; at PI3K γ (p110γ), under 1 µM; on PI3K δ, over 10 µM.
Regarding `Nc1nc2cc(-c3ccc4ncc(NCCCN5CCOCC5)nc4c3)ccc2o1` [Compound 222], the IC50 on PI3K β (p110β/p85α) was under 1 µM; on PI3K α (p110α/p85α), under 0.1 µM; on PI3K γ (p110γ), under 1 µM; at PI3K δ, under 0.1 µM.
As to `CC(C)n1cnc2ccc(-c3ccc4oc(N)nc4c3)cc2c1=O` [Compound 206], the IC50 is over 10 µM on PI3K β (p110β/p85α), under 0.1 µM at PI3K α (p110α/p85α), under 1 µM on PI3K γ (p110γ) and over 10 µM at PI3K δ.
